System: mutated or wild type K-ras expressing pancreatic carcinoma cells
Test: Cell growth and viable cell numbers (hemocytometer, MTT)
Format: cell-based, human
Method: FIG. 5. […] Cells were treated with the indicated agents for three days and viable cell counts were determined by hemocytometer.
Cell lines, culture conditions and growth assays.

| Substance | growth suppression compared with AS K-ras PS ODN |
| --- | --- |
| MM PS ODN: mismatched K-ras PS ODN CACTTGCAAATATTCAGT (SEQ ID NO:16) (DNA, all phosphorothioate, methylation of C not given here) | significantly less growth suppression |
| SC PS ODN: scrambled K-ras PS ODN ACTAGCTATACTAGCTAT (SEQ ID NO:17) (DNA, all phosphorothioate, methylation of C not given here) | significantly less growth suppression |

Source: patent US7329649B2, “Combinatorial methods for inducing cancer cell death” (The Trustees of Columbia University in the City of New York, priority 2001, dated 2008)
